Laboratory results reported in article PMC8668183 (Biomedicine & Pharmacotherapy, 2021).
Where a name gives a salt, the structure may show the parent alone. Read-outs that look alike come from different tables or passages of the source.

What was measured:
[1] = system: SARS-CoV-2; settings: human prostate cells; cited from earlier work
[2] = system: SARS-CoV-2; settings: human lung cells; cited from earlier work
[3] = system: SARS-CoV-2; settings: cited from earlier work
[4] = biological target: CYP2C9 (Homo sapiens, UniProt P11712); assay: Fluorometric CYP2C9 activity assay in human liver microsomes; format: in vitro ADME; settings: reference inhibitor at 60 µM, human hepatic microsomes
Sequence of CYP2C9 (P11712 whole entry): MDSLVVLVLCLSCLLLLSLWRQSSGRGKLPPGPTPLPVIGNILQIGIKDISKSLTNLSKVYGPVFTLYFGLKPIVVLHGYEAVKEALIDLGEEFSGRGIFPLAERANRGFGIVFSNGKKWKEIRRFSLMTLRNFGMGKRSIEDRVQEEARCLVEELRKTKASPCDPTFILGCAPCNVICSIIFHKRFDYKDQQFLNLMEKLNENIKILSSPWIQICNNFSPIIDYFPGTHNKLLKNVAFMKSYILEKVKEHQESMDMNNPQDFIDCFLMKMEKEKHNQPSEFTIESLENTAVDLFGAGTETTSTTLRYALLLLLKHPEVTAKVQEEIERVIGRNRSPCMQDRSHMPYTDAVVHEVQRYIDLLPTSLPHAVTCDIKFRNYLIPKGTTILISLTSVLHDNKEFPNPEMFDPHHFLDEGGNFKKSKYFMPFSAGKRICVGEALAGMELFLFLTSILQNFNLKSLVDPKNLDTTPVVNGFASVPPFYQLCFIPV

[5] = biological target: T1, CYP1A2 (Homo sapiens, UniProt P05177); assay: Fluorometric CYP1A2 activity assay in human liver microsomes; format: in vitro ADME; settings: reference inhibitor at 6 µM, human hepatic microsomes
T1 sequence (P05177 1-516): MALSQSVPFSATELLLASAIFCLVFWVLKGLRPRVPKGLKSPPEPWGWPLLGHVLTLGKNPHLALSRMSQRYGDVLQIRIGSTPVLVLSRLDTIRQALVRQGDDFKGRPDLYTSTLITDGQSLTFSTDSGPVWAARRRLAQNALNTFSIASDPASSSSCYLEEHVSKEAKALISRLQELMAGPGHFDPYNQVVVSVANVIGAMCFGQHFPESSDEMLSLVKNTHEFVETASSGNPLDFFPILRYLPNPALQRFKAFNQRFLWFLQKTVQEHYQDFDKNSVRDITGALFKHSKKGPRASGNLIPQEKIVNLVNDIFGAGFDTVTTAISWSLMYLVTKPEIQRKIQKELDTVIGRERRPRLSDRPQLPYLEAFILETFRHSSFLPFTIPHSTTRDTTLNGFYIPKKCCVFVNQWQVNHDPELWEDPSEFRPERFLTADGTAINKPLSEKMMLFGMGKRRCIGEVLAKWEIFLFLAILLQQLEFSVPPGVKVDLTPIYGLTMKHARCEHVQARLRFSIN

For `CNC(=O)c1ccc(N2C(=S)N(c3ccc(C#N)c(C(F)(F)F)c3)C(=O)C2(C)C)cc1F` [enzalutamide], the “SARS-CoV-2 infection” value [1] is listed as “suppressed mainly in human prostate cells” and the “SARS-CoV-2 infection” value [2] is listed as “not in human lung cells”.
For `N=C(N)c1ccc2cc(OC(=O)c3ccc(N=C(N)N)cc3)ccc2c1` [nafamostat mesylate], the “S protein-mediated fusion and SARS-CoV-2 entry into Calu-3 cells” value [3] is given as “could block successfully”.
In the case of `O=C(O)COc1ccc(C(=O)c2cccs2)c(Cl)c1Cl` [tienilic acid], the “effect on CYP2C9 activity” value [4] is reported as “inhibited”.
For `O=c1cc(-c2ccccc2)oc2c1ccc1ccccc12` [α-naphthoflavone], the “effect on CYP1A2 activity” value [5] was “suppressed significantly”.
